Laboratory results reported in patent US3975524A, “3-Piperazino-isoquinolines and salts thereof” (Boehringer Ingelheim GmbH, priority 1974, dated 1976).
Like-named read-outs stand apart in the source and are kept apart here.

Assays:
platelet stickiness = assay: retention test according to Morris (inhibition of platelet stickiness on glass beads); assay type: cell-based; conditions: human citrate-blood, 10 min at 37°C
Method: 1. The inhibiting effect upon the platelet stickiness was determined by means of the so-called retention test according to Morris [see E. Deutsch et al, 1. Internationales Symposium uber Stoffwechsel und Membranpermeabilitat von Erythrocyten und Thrombocyten, Vienna, Austria (1969); Georg Thieme Verlag, Stuttgart, Germany]. 1 ml of human citrate-blood is pipetted into each of a number of small test tubes, and the test compound is added to various final concentrations. The tubes are incubated for 10 minutes at 37°C. 1 gm of glass beads (glass beads for gas-chromatography) is added to half of the tubes. Finally, the closed tubes are attached to a vertical wheel and rotated for 1 minute. By this means good contact is obtained between the glass beads and the blood. The tubes are then allowed to stand at room temperature for another hour, after which time a satisfactory sedimentation of erythrocytes has taken place. 0.01 ml of the supernatant plasma is removed, diluted to 1:8,000 with celloscope solution, and the platelet count is read in the celloscope.

thrombocyte aggregation [1] = assay: inhibition of thrombocyte aggregation induced by collagen; assay type: cell-based, human; conditions: platelet-rich plasma
Description: (§1) 2. The inhibiting action upon thrombocyte aggregation was ascertained by the method of Born and Cross, J. Physiol. 170, 397 (1964), in the platelet-rich plasma of healthy human test subjects, by photometrically ascertaining and registering the rate of decrease of the optical density after addition of (a) adenosine diphosphate (ADP). The angle of inclination of the density curve is a measure of the rate of aggregration (V max.). The point on the curve which corresponded to the greatest light-permeability was used for calculation of the optical density (o.D.).
(b) Aggregration with collagen
The procedure is the same as described under (a). To provoke aggregation commercial collagen was used, containing 1 mgm of collagen fibrils per 1 ml. To provoke maximum aggregation, about 0.01 ml of this collagen solution was added to 1 ml of platelet-rich plasma. Previously, the plasma was incubated at 37°C with varying quantities of test compound for 10 minutes each: […]

bleeding time = assay: prolonging effect upon the bleeding time, method of Duke; assay type: in vivo; conditions: 10 mgm/kg per os, mice, vs untreated animals
Method: 3. The prolonging effect upon the bleeding time was ascertained by the method of Duke, J. Amer. Med. Assoc. 15, 1185 (1910). 10 mgm/kg of the test compound were given per os to non-anesthetized mice. After 1 or 3 hours, about 0.5 mm was cut off from the tail of each animal, and the exuded blood was carefully soaked up with filter paper at intervals of 30 seconds. The number of drops of blood so obtained was used as a measure for the bleeding time compared to untreated animals (5 animals/test).

thrombocyte aggregation [2] = assay: inhibition of thrombocyte aggregation induced by adenosine diphosphate (ADP), Born and Cross; assay type: cell-based; conditions: 10 min, platelet-rich human plasma, 10 min at 37°C, read-out: ED50 (concentration which reduces the maximum light-permeability after addition of ADP by 50%)
Description: as §1
The ADP-doses were held to a minimum, but still sufficiently large to result in an irreversible aggregation. Prior to addition of ADP, each plasma sample was incubated for 10 minutes at 37°C with various amounts of the test compound. From the data thus obtained, the median effective amount of test compound (ED50), i.e. the concentration which reduces the maximum light-permeability in platelet-rich plasma after addition of ADP by 50%, was calculated.

[3] = acute toxicity in white mice after oral or intravenous administration; assay type: in vivo; conditions: observation time 14 days; for LD50 at 336 h: mouse, in vivo; for animals died: 250 mgm/kg p.o.
Method: 4. The acute toxicities of the compounds were determined in white mice (observation time: 14 days) after oral or intravenous adminstration. The LD50 was calculated from the percentage of animals which died after different doses within the observation time [see Finney et al in Probit Analysis, third Edition, Cambridge (1971)].

[4] = po, read-out: Toxicity (p.o. bound)

| SMILES | Inhibition in % (platelet stickiness) (platelet stickiness; 3×10^^-5 mol/liter) [%] | % inhibition of O.D. (thrombocyte aggregation [1]; 10^^-4 mol/liter) [%] | % inhibition of Vmax (thrombocyte aggregation [1]; 10^^-4 mol/liter) [%] | % inhibition of O.D. (thrombocyte aggregation [1]; 10^^-5 mol/liter) [%] | % inhibition of Vmax (thrombocyte aggregation [1]; 10^^-5 mol/liter) [%] | % Prolongation of bleeding time (bleeding time; 1 hour after application) [%] | IC50 (thrombocyte aggregation [2]) [µM] | % inhibition of O.D. (thrombocyte aggregation [1]; 3.10^^-5 mol/liter) [%] | % inhibition of Vmax (thrombocyte aggregation [1]; 3.10^^-5 mol/liter) [%] | % Prolongation of bleeding time (bleeding time; 3 hours after application) [%] | LD50 at 336 h ([3]; iv, read-out: LD50) [mg/kg] | LD50 at 336 h ([3]; po, read-out: LD50) [mg/kg] | Inhibition in % (platelet stickiness) (platelet stickiness; 5×10^^-5 mol/liter) [%] | animals died [3] | LD50 at 336 h [3, 4] [mg/kg] | Inhibition in % (platelet stickiness) (platelet stickiness; 10^^-4 mol/liter) [%] |
| --- | --- | --- | --- | --- | --- | --- | --- | --- | --- | --- | --- | --- | --- | --- | --- | --- |
| c1ccc2c(N3CCSCC3)nc(N3CCNCC3)cc2c1 [A, 1-thiomorpholino-3-piperazino-isoquinoline] | 18 | 100 | 100 | 62 | 51 | 90 |  |  |  |  |  |  |  |  |  |  |
| [O-][S+]1CCN(c2nc(N3CCNCC3)cc3ccccc23)CC1 [B, 1-(1-oxido-thiomorpholino)-3-piperazino-isoquinoline] | 33 |  |  | 80 | 75 | 83 | 30 | 96 | 96 | 16 | 123 | 940 |  |  |  |  |
| CN1CCN(c2cc3ccccc3c(N3CCOCC3)n2)CC1 [C, 1-morpholino-3-(N'-methyl-piperazino)-isoquinoline] |  |  |  |  |  | 85 |  |  |  |  |  |  | 50 | 2 out of 5 | > 250 |  |
| [O-][S+]1CCN(c2nc(N3CCNCC3)cc3c(Cl)cccc23)CC1 [Compound E, 1-(1-oxido-thiomorpholino)-3-piperazino-5-chloro-isoquinoline] |  |  |  | 100 | 100 | 146 |  |  |  |  |  |  |  | 0 out of 5 | > 250 | 92 |
| Cc1cccc2c(N3CC[S+]([O-])CC3)nc(N3CCNCC3)cc12 [D, 1-(1-oxido-thiomorpholino)-3-piperazino-5-methyl-isoquinoline] |  |  |  |  |  | 78 |  | 100 | 100 |  |  |  |  | 0 out of 5 | > 250 | 86 |
| COc1cccc2c(N3CC[S+]([O-])CC3)nc(N3CCNCC3)cc12 [F, 1-(1-oxido-thiomorpholino)-3-piperazino-5-methoxy-isoquinoline] |  |  |  | 100 | 100 | 117 |  |  |  |  |  |  |  |  |  | 70 |
